Results published in US20130202698A1 (NANJING SANHOME PHARMACEUTICAL CO., LTD., priority 2005, published 2013).
Read-outs that look alike come from different tables or passages of the source. Marks after values point to notes of the source that are not given here.

Columns and labels:
[1] = tested on: spontaneous activities of mice; settings: both, mouse, in vivo, 3 mg/kg
Procedure: Mice weighing 18-22 g, half male and half female, were placed in the laboratory 24 hours before the test to adapt to the environment. The room temperature was controlled at 24±2° C. Animals were fasted for 8 hours before testing, and then placed in a transparent cage. The number of spontaneous activities of mice was counted by an automatic device (model XZ-4 by Drug Research Institute of China Academy of Medical Sciences). Mice were pre-screened by counting their spontaneous activities for five minutes and unqualified mice were excluded. A total of 110 mice were selected and divided into 11 groups with 10 mice in each group.
Chlorpromazine (3 mg/kg) was used as the positive control. The dose volume was 0.2 mL/10 gram and infusion rate was 0.2 mL/10 seconds.

[2] = tested on: motor balance and coordination; settings: both, mouse, in vivo, 3 mg/kg
Procedure: Motor balance and coordination were tested using a modified beam walking method. Mice were put on a smooth beam tilted at an angle of 70 degree. Mice passed the test by standing on the beam for 0.5 minute without falling off. All the mice were pre-screened before the studies, and a total of 110 mice were selected by passing the beam test in 3 consecutive tries. The selected mice were divided into 11 groups with 10 mice in each group (half male and half female). At certain time points after drug administration, mice were tested on the beam for 3 consecutive times. A mouse was counted as failing to the test if it fell off the beam for 2 or more times.
The dose volume was 0.2 mL/10 gram and infusion rate was 0.2 mL/10 seconds. Chlorpromazine was used as the positive control.

[3] = tested on: thiosemicarbazide-induced convulsion; experiment: Anticonvulsant effects on thiosemicarbazide-induced convulsion in mice; assay type: in vivo; settings: 2 mg/kg, positive control, n=10
Procedure: (§1) Mice are randomized into 4 treatment groups (n=10 with half male and half female): dextro- or levo-ornidazole (dosage 40, 80, 160 mg/kg), vehicle control group (15% propylene glycol in 0.9% sodium chloride, 20 mL/kg) and the positive control group. Animals are treated with known convulsion-inducing agents, followed by the drug or vehicle control given intravenously. The dose volume is 20 mL/kg with an infusion rate of 0.2 mL/10 seconds. The anticonvulsant effects are observed and recorded (see Tables 2-6).

[4] = tested on: Remefline-induced convulsion; experiment: Anticonvulsant effects on Remefline-induced convulsion in mice; assay type: in vivo; settings: 2 mg/kg, positive control
Procedure: In one experiment, the anticonvulsant effects of levo- and dextro-ornidazole against drug-induced convulsions in mice were compared. In four different animal convulsion models, mice were treated by four different seizure-inducing agents, including Remefline, Strychnine, isoniazid, thiosemicarbazide. Levo- or dextro-ornidazole was administered along with the seizure-inducing agents, and several outcomes were measured, including rate of convulsion, mortality rate, time to convulsion (latency), and time to death. Diazepam was used as a positive anticonvulsant control.
as §1, with “seconds.” for “seconds. The anticonvulsant effects are observed and recorded (see Tables 2-6).”

[5] = tested on: Strychnine-induced convulsion; experiment: Anticonvulsant effects on Strychnine-induced convulsion in mice; assay type: in vivo; settings: 2 mg/kg, positive control, n=10
Procedure: as §1

[6] = tested on: isoniazid-induced convulsion; experiment: Anticonvulsant effects on isoniazid-induced convulsion in mice; assay type: in vivo; settings: 2 mg/kg, positive control, Mean ± SD, n=10
Procedure: as §1

righting reflex = experiment: Hypnotic effect, loss of righting reflex; assay type: in vivo; settings: mice, positive control, 40 mg/kg (Table 9), 10 animals

With `CN(C)CCCN1c2ccccc2Sc2ccc(Cl)cc21` [Chlorpromazine] the “Spontaneous Activities (per 5 min)” value ([1]; 0.5 h) was 5 ± 2 per 5 min, the “Spontaneous Activities (per 5 min)” value ([1]; 1 h) was 6 ± 4 per 5 min and the “Spontaneous Activities (per 5 min)” value ([1]; 2 h) was 13 ± 6 per 5 min. The “Spontaneous Activities (per 5 min)” value ([1]; 3 h) was 21 ± 9 per 5 min, the “Spontaneous Activities (per 5 min)” value ([1]; 4 h) was 35 ± 9 per 5 min and the “Number of Animals Fall Off” value ([2]; 0.5 h) was 10. For the same molecule, the “Number of Animals Fall Off” value ([2]; 1 h) was 10, the “Number of Animals Fall Off” value ([2]; 2 h) was 10 and the “Number of Animals Fall Off” value ([2]; 3 h) was 9. For the same molecule, the “Number of Animals Fall Off” value ([2]; 4 h) was 5.
In the case of `CN1C(=O)CN=C(c2ccccc2)c2cc(Cl)ccc21` [Diazepam], the “Mortality Rate” value [3] is reported as 0/10**, the “Rate of Convulsion” value [3] is reported as 2/10** and the “Rate of Convulsion” value ([4]; n=10) is reported as 0/10**. For the same molecule, the “Mortality Rate” value ([4]; n=10, 2 mg/kg) was 0/10**, the “Mortality Rate” value ([4]; n=10, listed as diazepam) was 0/10 and the “Mortality Rate” value [5] was 0/10**. The “Convulsion Latency” value [6] was 57.4 ± 9.7 min and the “Time to Death” value [6] was 79.0 ± 12.9 min.
With `CCCC(C)C1(CC)C(=O)NC(=O)NC1=O` (stereo not shown) [Pentobarbital, Sodium pentobarbital] the “Number of animals Loss of Righting Flex 30 min Post-dose” value (righting reflex) was 10**.
